Reference: PubChem BioAssay AID342 (DTP/NCI, 2004)
Where “and” joins values, the source holds several entries; their conditions need not be identical. Identical values can stand only once.

Tested on: Swiss mice, Sarcoma 180 sc, mean tumor weight T/C
Test: NCI In Vivo Anticancer Drug Screen. Data for tumor model Sarcoma 180 (subcutaneous) in Swiss mice
Conditions: endpoint: mean tumor weight, higher = larger tumour
Method: The antitumor activity of compounds was measured in mice bearing transplantable tumors. Survival or tumor size were measured and the results are expressed as the measurement made in the treated group (T) divided by the measurement made in the vehicle treated control group (C). The tumor model used in this assay is Sarcoma 180 (subcutaneous) in Swiss mice

[1] = dose: 6.25 mg/kg/injection, schedule: Q01DX007 (ip), vehicle: other

CCOC(=O)C1=C(C)NC(C)=C(C(=O)OCC)C1C
T/C (dose: 3.1 mg/kg/injection, schedule: Q01DX007 (ip), vehicle: other): 50 % of control
T/C [1]: 33 % of control
T/C (dose: 31.2 mg/kg/injection, schedule: Q01DX007 (ip), vehicle: other): 42 % of control
T/C (dose: 31.25 mg/kg/injection, schedule: Q01DX007 (ip), vehicle: other): 60 % of control
T/C (dose: 62.5 mg/kg/injection, schedule: Q01DX007 (oral), vehicle: other): 57 % of control
T/C (dose: 62.5 mg/kg/injection, schedule: Q01DX007 (sc), vehicle: other): 98 % of control
T/C (dose: 62.5 mg/kg/injection, schedule: Q02DX004 (ip), vehicle: other): 60 % of control
T/C (dose: 62.5 mg/kg/injection, schedule: Q03DX003 (ip), vehicle: other): 60 % of control
T/C (dose: 100.0 mg/kg/injection, schedule: Q01DX007 (ip), vehicle: other): 69 % of control
T/C (dose: 125.0 mg/kg/injection, schedule: Q01DX007 (oral), vehicle: other): 84 % of control
T/C (dose: 125.0 mg/kg/injection, schedule: Q01DX007 (sc), vehicle: other): 57 % of control
T/C (dose: 125.0 mg/kg/injection, schedule: Q02DX004 (ip), vehicle: other): 50 % of control
T/C (dose: 125.0 mg/kg/injection, schedule: Q03DX003 (ip), vehicle: other): 60 % of control
T/C (dose: 175.0 mg/kg/injection, schedule: Q01DX007 (ip), vehicle: other): 29 % of control
T/C (dose: 250.0 mg/kg/injection, schedule: Q01DX007 (oral), vehicle: other): 76 % of control
T/C (dose: 250.0 mg/kg/injection, schedule: Q01DX007 (sc), vehicle: other): 60 % of control
T/C (dose: 250.0 mg/kg/injection, schedule: Q02DX004 (ip), vehicle: other): 36 % of control
T/C (dose: 250.0 mg/kg/injection, schedule: Q03DX003 (ip), vehicle: other): 54 % of control

COC(=O)c1cc([N+](=O)[O-])cc([N+](=O)[O-])c1Cl
T/C (dose: 6.0 mg/kg/injection, schedule: Q01DX007 (ip), vehicle: methylcellulose (MC)): 91 % of control
T/C (dose: 12.0 mg/kg/injection, schedule: Q01DX007 (ip), vehicle: methylcellulose (MC)): 111 % of control
T/C (dose: 25.0 mg/kg/injection, schedule: Q01DX007 (ip), vehicle: methylcellulose (MC)): 86 % of control

CCc1nc(N)nc(N)c1-c1ccc(Cl)c(Cl)c1.O.O.[Zn]
T/C (dose: 1.5 mg/kg/injection, schedule: Q01DX007 (ip), vehicle: carboxymethylcellulose (CMC)): 62 % of control
T/C (dose: 2.3 mg/kg/injection, schedule: Q01DX007 (ip), vehicle: carboxymethylcellulose (CMC)): 65 % of control
T/C (dose: 3.5 mg/kg/injection, schedule: Q01DX007 (ip), vehicle: carboxymethylcellulose (CMC)): 46 % of control
T/C (dose: 8.0 mg/kg/injection, schedule: Q01DX007 (ip), vehicle: carboxymethylcellulose (CMC)): 39 % of control
T/C (dose: 12.0 mg/kg/injection, schedule: Q01DX007 (ip), vehicle: carboxymethylcellulose (CMC)): 18 % of control

CC1(C)O[C@@H]2C[C@H]3[C@@H]4CCC5=CC(=O)C=C[C@]5(C)[C@@]4(F)[C@@H](O)C[C@]3(C)[C@]2(C(=O)CO)O1
T/C (dose: 1.1 mg/kg/injection, schedule: Q#A X014 (sc), vehicle: steriod suspending solution): 41 % of control and 57 % of control
T/C (dose: 1.65 mg/kg/injection, schedule: Q#A X014 (sc), vehicle: steriod suspending solution): 33 % of control and 34 % of control
T/C (dose: 2.5 mg/kg/injection, schedule: Q#A X014 (sc), vehicle: steriod suspending solution): 20 % of control and 26 % of control
T/C (dose: 3.75 mg/kg/injection, schedule: Q#A X014 (sc), vehicle: steriod suspending solution): 22 % of control

CCc1nc(N)nc(N)c1-c1ccc(Cl)c(Cl)c1.[Cl][Pd][Cl]
T/C (dose: 6.6 mg/kg/injection, schedule: Q01DX007 (ip), vehicle: carboxymethylcellulose (CMC)): 95 % of control
T/C (dose: 8.0 mg/kg/injection, schedule: Q01DX007 (ip), vehicle: methylcellulose (MC)): 111 % of control
T/C (dose: 10.0 mg/kg/injection, schedule: Q01DX007 (ip), vehicle: carboxymethylcellulose (CMC)): 49 % of control
T/C (dose: 15.0 mg/kg/injection, schedule: Q01DX007 (ip), vehicle: carboxymethylcellulose (CMC)): 35 % of control
T/C (dose: 15.0 mg/kg/injection, schedule: Q01DX007 (ip), vehicle: methylcellulose (MC)): 55 % of control
T/C (dose: 22.5 mg/kg/injection, schedule: Q01DX007 (ip), vehicle: carboxymethylcellulose (CMC)): 34 % of control
T/C (dose: 30.0 mg/kg/injection, schedule: Q01DX007 (ip), vehicle: methylcellulose (MC)): 51 % of control

C#C[C@]1(O)CC[C@H]2[C@@H]3CCc4cc(O)ccc4[C@H]3CC[C@@]21C
T/C (dose: 125.0 mg/kg/injection, schedule: Q#A X014 (sc), vehicle: steriod suspending solution): 30 % of control and 48 % of control and 50 % of control
T/C (dose: 187.5 mg/kg/injection, schedule: Q#A X014 (sc), vehicle: steriod suspending solution): 39 % of control and 50 % of control and 51 % of control
T/C (dose: 281.25 mg/kg/injection, schedule: Q#A X014 (sc), vehicle: steriod suspending solution): 62 % of control and 76 % of control

CO[C@H]1CC[C@@]2(C)C(=CC[C@@H]3[C@@H]2CC[C@]2(C)C(=O)C(=O)C[C@@H]32)C1
T/C (dose: 22.0 mg/kg/injection, schedule: Q01DX007 (sc), vehicle: steriod suspending solution): 154 % of control
T/C (dose: 33.0 mg/kg/injection, schedule: Q01DX007 (sc), vehicle: steriod suspending solution): 74 % of control

Cc1cc2nc3c(=O)[nH]c(=O)nc-3n(CC(O)C(O)C(O)C(O)CO)c2cc1C (centres undefined)
T/C (dose: 31.25 mg/kg/injection, schedule: Q01DX007 (ip), vehicle: carboxymethylcellulose (CMC)): 87 % of control
T/C (dose: 38.25 mg/kg/injection, schedule: Q01DX007 (ip), vehicle: carboxymethylcellulose (CMC)): 54 % of control
T/C (dose: 62.5 mg/kg/injection, schedule: Q01DX007 (ip), vehicle: carboxymethylcellulose (CMC)): 66 % of control
T/C (dose: 76.5 mg/kg/injection, schedule: Q01DX007 (ip), vehicle: carboxymethylcellulose (CMC)): 48 % of control
T/C (dose: 125.0 mg/kg/injection, schedule: Q01DX007 (ip), vehicle: carboxymethylcellulose (CMC)): 83 % of control
T/C (dose: 153.0 mg/kg/injection, schedule: Q01DX007 (ip), vehicle: carboxymethylcellulose (CMC)): 63 % of control
T/C (dose: 250.0 mg/kg/injection, schedule: Q01DX007 (ip), vehicle: carboxymethylcellulose (CMC)): 60 % of control
T/C (dose: 306.0 mg/kg/injection, schedule: Q01DX007 (ip), vehicle: carboxymethylcellulose (CMC)): 57 % of control

Nc1ncnc2nc[nH]c12
T/C (dose: 25.0 mg/kg/injection, schedule: Q01DX007 (ip), vehicle: saline): 104 % of control
T/C (dose: 50.0 mg/kg/injection, schedule: Q01DX007 (ip), vehicle: saline): 87 % of control
T/C (dose: 100.0 mg/kg/injection, schedule: Q01DX007 (ip), vehicle: saline): 119 % of control
T/C (dose: 200.0 mg/kg/injection, schedule: Q01DX007 (ip), vehicle: saline): 57 % of control

CCN(CC)c1ccc2cc3ccc(=[N+](CC)CC)cc-3oc2c1
T/C (dose: 0.42 mg/kg/injection, schedule: Q#A X014 (ip), vehicle: carboxymethylcellulose (CMC)): 84 % of control
T/C (dose: 0.83 mg/kg/injection, schedule: Q#A X014 (ip), vehicle: carboxymethylcellulose (CMC)): 106 % of control
T/C (dose: 1.67 mg/kg/injection, schedule: Q#A X014 (ip), vehicle: carboxymethylcellulose (CMC)): 82 % of control
T/C (dose: 3.35 mg/kg/injection, schedule: Q#A X014 (ip), vehicle: carboxymethylcellulose (CMC)): 73 % of control
T/C [1]: 111 % of control
T/C (dose: 12.5 mg/kg/injection, schedule: Q01DX007 (ip), vehicle: other): 98 % of control

O=C(Nc1ccc([N+](=O)[O-])cc1)Nc1ccc([N+](=O)[O-])cc1 (tested in a mixture with another compound)
T/C (dose: 37.0 mg/kg/injection, schedule: Q#A X014 (ip), vehicle: methylcellulose (MC)): 59 % of control
T/C (dose: 55.5 mg/kg/injection, schedule: Q#A X014 (ip), vehicle: methylcellulose (MC)): 60 % of control
T/C (dose: 187.5 mg/kg/injection, schedule: Q#A X014 (ip), vehicle: methylcellulose (MC)): 53 % of control and 50 % of control and 52 % of control
T/C (dose: 250.0 mg/kg/injection, schedule: Q#A X014 (ip), vehicle: methylcellulose (MC)): 44 % of control

N#Cc1ccc(S(N)(=O)=O)cc1
T/C (dose: 30.0 mg/kg/injection, schedule: Q01DX007 (ip), vehicle: alkali diluted with saline): 76 % of control
T/C (dose: 33.0 mg/kg/injection, schedule: Q01DX007 (ip), vehicle: other): 70 % of control
T/C (dose: 44.0 mg/kg/injection, schedule: Q01DX007 (ip), vehicle: alkali diluted with saline): 71 % of control
T/C (dose: 49.0 mg/kg/injection, schedule: Q01DX007 (ip), vehicle: other): 68 % of control
T/C (dose: 66.0 mg/kg/injection, schedule: Q01DX007 (ip), vehicle: alkali diluted with saline): 54 % of control
T/C (dose: 74.0 mg/kg/injection, schedule: Q01DX007 (ip), vehicle: other): 59 % of control
T/C (dose: 100.0 mg/kg/injection, schedule: Q01DX007 (ip), vehicle: alkali diluted with saline): 39 % of control
T/C (dose: 111.0 mg/kg/injection, schedule: Q01DX007 (ip), vehicle: other): 45 % of control and 60 % of control
T/C (dose: 166.0 mg/kg/injection, schedule: Q01DX007 (ip), vehicle: other): 34 % of control
T/C (dose: 250.0 mg/kg/injection, schedule: Q01DX007 (ip), vehicle: other): 13 % of control
